Measured values: patent US5747235A, “Silver halide light sensitive emulsion layer having enhanced photographic sensitivity” (Eastman Kodak Company, priority 1996, dated 1998)
Where a name gives a salt, the structure may show the parent alone.

How the values were obtained:
[1] = Example 2: photographic speed and fog, 365 nm exposure, acids vs corresponding esters, emulsion T-1; set-up: Fog: unit not given here; details: for Fog / S365: undyed; for S365: control=100
Experimental: This chemically sensitized emulsion was then used to prepare the experimental coating variations indicated in Table I. All of the experimental coating variations in Table I contained the hydroxybenzene 2,4-disulfocatechol (HB3) at a concentration of 13 mmole/mole Ag, added to the melt before the addition of any further addenda. The fragmentable electron donor compounds as indicated in Table I were added from an aqueous potassium bromide solution, or from a methanol solution, before additional water, gelatin, and surfactant were added to the emulsion melts.
(§1) For photographic evaluation, each of the coating strips was exposed for 0.1 sec to a 365 nm emission line of a Hg lamp filtered through a Kodak Wratten filter number 18A and a step wedge ranging in density from 0 to 4 density units in 0.2 density steps. The exposed film strips were developed for 6 min in Kodak Rapid X-ray Developer (KRX). S365, relative sensitivity at 365 nm, was evaluated at a density of 0.2 units above fog.
The coatings described in Table II all contain the hydroxybenzene, 2,4-disulfocatechol (HB3) at a concentration of 13 mmole/mole Ag, added to the melt before any further addenda.

[2] = oxidation potential E2 of radical X by laser flash photolysis; format: physicochemical; details: Table H; model compound, A and L replaced by alkyl
From the text: In this technique, the compound X-Y is oxidized by an electron transfer reaction initiated by a short laser pulse. The oxidized form of X-Y then undergoes the bond cleavage reaction to give the radical X^.cndot.. X^.cndot. is then allowed to interact with various electron acceptor compounds of known reduction potential. […] The experimental details are set forth more fully below. The oxidation potentials (E2) for radicals X^.cndot. for typical compounds useful in accordance with our invention are given in Table C. Where only limits on potentials could be determined, the following notation is used: <-0.90 V should be read as "more negative than -0.90 V" and >-0.40 V should be read as "less negative than -0.40 V".
(a) Oxidation Potential of Radical X.cndot.
The laser flash photolysis measurements were performed using a nanosecond pulsed excimer (Questek model 2620, 308 nm, ca. 20 ns, ca. 100 mJ) pumped dye laser (Lambda Physik model FL 3002). The laser dye was DPS (commercially available from Exciton Co.) in p-dioxane (410 nm, ca. 20 ns, ca. 10 mJ). The analyzing light source was a pulsed 150W xenon arc lamp (Osram XBO 150/W). The arc lamp power supply was a PRA model 302 and the pulser was a PRA model M-306. The pulser increased the light output by ca. 100 fold, for a time period of ca. 2-3 ms. The analyzing light was focussed through a small aperture (ca. 1.5 mm) in a cell holder designed to hold 1 cm^2 cuvettes. The laser and analyzing beams irradiated the cell from opposite directions and crossed at a narrow angle (ca. 15°). After leaving the cell, the analyzing light was collimated and focussed onto the slit (1 mm, 4 nm bandpass) of an ISA H-20 monochromator. The light was detected using 5 dynodes of a Hamamatsu model R446 photomultiplier. The output of the photomultiplier tube was terminated into 50 ohm, and captured using a Tektronix DSA-602 digital oscilloscope. The entire experiment is controlled from a personal computer.
The experiments were performed either in acetonitrile, or a mixture of 80% acetonitrile and 20% water. The first singlet excited state of a cyanoanthracene (A), which acted as the electron acceptor, was produced using the nanosecond laser pulse at 410 nm. […] Secondary electron transfer then occurred between B^.cndot.+ and the lower oxidation potential electron donor X-Y, to generate X-Y^.cndot.+ in high yield. For the investigations of the oxidation potentials of the radicals X^.cndot., typically the cyanoanthrancene concentration was ca. 2×10^-5 M to 10^-4 M the biphenyl concentration was ca. 0.1M. The concentration of the X-Y donor was ca. 10^-3 M. The rates of the electron transfer reactions are determined by the concentrations of the substrates. The concentrations used ensured that the A^.cndot.- and the X-Y^.cndot.+ were generated within 100 ns of the laser pulse. The radical ions could be observed directly by means of their visible absorption spectra. The kinetics of the photogenerated radical ions were monitored by observation of the changes in optical density at the appropriate wavelengths.
The reduction potential (Ered) of 9,10-dicyanoanthracene (DCA) is -0.91 V. In a typical experiment, DCA is excited and the initial photo-induced electron transfer from the biphenyl (B) to the DCA forms a DCA^.cndot.-, which is observed at its characteristic absorption maximum (λobs =705 nm), within ca. 20 ns of the laser pulse. Rapid secondary electron transfer occurs from X-Y to B^.cndot.+ to generate X-Y^.cndot.+, which fragments to give X^.cndot.. A growth in absorption is then observed at 705 nm with a time constant of ca. 1 microsecond, due to reduction of a second DCA by the X^.cndot.. The absorption signal with the microsecond growth time is equal to the size of the absorption signal formed within 20 ns.
If the oxidation potential of X^.cndot. is not sufficiently negative to reduce DCA, an estimate of its oxidation potential was obtained by using other cyanoanthracenes as acceptors. […]

[3] = fragmentation rate constant kfr by laser flash photolysis; format: physicochemical; details: Table H; model compound, A and L replaced by alkyl
From the text: The kinetics of the bond cleavage or fragmentation reaction can be measured by conventional laser flash photolysis. […] The specific experimental apparatus we used to measure fragmentation rate constants and radical oxidation potentials is described in detail below.
(b) Fragmentation Rate Constant Determination
These absorptions were used to determine the kinetics of the fragmentation reactions of the radical cations of the X-Y. Excitation of 9,10-dicyanoanthracene (DCA) in the presence of biphenyl and the X-Y donor, as described above, results in the formation of the DCA^.cndot.- and the X-Y^.cndot.+. By using a concentration of X-Y of ca. 10^-2 M, the X-Y^.cndot.+ can be formed within ca. 20 ns of the laser pulse. […] The monitoring wavelengths used were somewhat different for the different donors, but were mostly around 470-530 nm. […] Alternatively, when the decay rate of the X-Y^.cndot.+ was less than 10^6 s^-1, the solutions were purged with oxygen.
The experiments measuring the fragmentation rate constants were performed in acetonitrile with the addition of 20% water, so that all of the salts could be easily solubilized. Most experiments were performed at room temperature. […] When this happened, the fragmentation rate constants were measured as a function of temperature, and the rate constant at room temperature determined by extrapolation.

[4] = oxidation potential E1 by cyclic voltammetry; format: physicochemical; details: for E1 (V) for XY moiety: Table H, model compound, A and L replaced by alkyl
Experimental: Oxidation potentials are well known and can be found, for example, in "Encyclopedia of Electrochemistry of the Elements", Organic Section, Volumes XI-XV, A. Bard and H. Lund (Editors) Marcel Dekker Inc., NY. (1984). E1 can be measured by the technique of cyclic voltammetry. In this technique, the electron donating compound is dissolved in a solution of 80%/20% by volume acetonitrile to water containing 0.1M lithium perchlorate. Oxygen is removed from the solution by passing nitrogen gas through the solution for 10 minutes prior to measurement. A glassy carbon disk is used for the working electrode, a platinum wire is used for the counter electrode, and a saturated calomel electrode (SCE) is used for the reference electrode. Measurement is conducted at 25° C. using a potential sweep rate of 0.1 V/sec. The oxidation potential vs. SCE is taken as the peak potential of the cyclic voltammetric wave.

[5] = Example 10: photographic sensitivity and fog, color format, blue sensitized emulsion T-2; details: for Photographic Sensitivity SWR2B: control=100
Experimental: The hydroxybenzene, 2,4-disulfocatechcol (HB3) at a concentration of 13×10^-3 mole/mole Ag was added to the emulsion melt before the start of the chemical sensitization procedure. […] The fragmentable two-electron donors S-3, S-9, S-6, or S-8 were then added to the emulsion melt.
The melts were prepared for coating by adding additional water, deionized gelatin and coating surfactants. Coatings were prepared by combining the emulsion melts with a melt containing deionized gelatin and an aqueous dispersion of the cyan-forming color coupler CC-1 and coating the resulting mixture on acetate support. […] The structure of the color coupler CC-1 is given below: [drawing 120]
For photographic evaluation, each of the coating strips was exposed for 0.01 sec to a 3000K color temperature tungsten lamp filtered to give an effective color temperature of 5500K and further filtered through a Kodak Wratten filter number 2B, and a step wedge ranging in density from 0 to 4 density units in 0.20 density steps. This exposure gives light absorbed mainly by the blue sensitizing dye. The exposed film strips were developed for 31/4 minutes in Kodak C-41 color developer. SWR2B, relative sensitivity for this filtered exposure, was evaluated at a cyan density of 0.15 units above fog.

[6] = Example 5: photographic speed and fog, 365 nm exposure, fragmenting vs non-fragmenting one-electron donors, emulsion T-2; set-up: Fog: unit not given here; details: for sensitivity and fog change: undyed T-2 emulsion
Experimental: as §1
An AgBrI tabular silver halide emulsion (Emulsion T-2) was prepared containing 4.05% total I distributed such that the central portion of the emulsion grains contained 1.5% I and the perimeter area contained substantially higher I, as described by Chang et. al., U.S. Pat. No. 5,314,793. […] This emulsion was precipitated using deionized gelatin. The emulsion was sulfur sensitized by adding 8.5×10^-6 mole 1,3-dicarboxymethyl-1,3-dimethyl-2-thiourea /mole Ag at 40° C.; the temperature was then raised to 60° C. at a rate of 5° C./3 min and the emulsions held for 20 min before cooling to 40° C. The chemically sensitized emulsion was then used to prepare coatings containing the fragmentable two-electron donor compounds. […] Where present, the blue sensitizing dye D-I or the red sensitizing dye D-II were added from methanol solution to the emulsion at 40° C. after the chemical sensitization and disulfocatechol addition. The fragmentable two-electron donor compounds were added to the emulsion at 40° C. and the coatings were prepared and tested as described in Example 1, except that the additional gelatin used to prepare the coatings described in Table III was deionized gelatin.
Where present, the sensitizing dye D-II was added from methanol solution to the emulsion at 40° C. after the chemical sensitization but before the addition of the one-electron donating compound. The coatings were tested for their response to a 365 nm exposure as described in Example 1. For this exposure, the relative sensitivity was set equal to 100 for the control coating with no one-electron donating compound added.

[7] = 0.044 x10^-3 mole/mole Ag, dye D-II 0.86 x10^-3
[8] = 0.044 x10^-3 mole/mole Ag, dye D-II 0.86 x10^-3, dyed control 69
[9] = 0.044 x10^-3 mole/mole Ag, no dye, no HB3
[10] = 0.044 x10^-3 mole/mole Ag, no dye, no HB3, control=100
[11] = 0.14 x10^-3 mole/mole Ag, dye D-II 0.86 x10^-3
[12] = 0.14 x10^-3 mole/mole Ag, dye D-II 0.86 x10^-3, dyed control 69
[13] = 0.14 x10^-3 mole/mole Ag, no dye, no HB3
[14] = 0.14 x10^-3 mole/mole Ag, no dye, no HB3, control=100

| SMILES | E2 (V) for XY moiety [2] [V] | kfr (s^-1) for XY moiety [3] | E1 (V) for XY moiety [4] [V] | Fog [6, 7] | S365 [6, 8] | Fog [6, 9] | S365 [6, 10] | Fog [6, 11] | S365 [6, 12] | Fog [6, 13] | S365 [6, 14] | sensitivity and fog change [6] | E1 (V) ([4]; Table V) | other results |
| --- | --- | --- | --- | --- | --- | --- | --- | --- | --- | --- | --- | --- | --- | --- |
| CCSCCN(c1ccc(OC)cc1)C(C)C(=O)O (centres unmarked) [Compound S-1, sodium salt] | < -0.9 | 1.1e+06 s⁻¹ | 0.22 |  |  |  |  |  |  |  |  |  |  | Fog ([1]; 0.00022 x10^-3 mole/mole Ag): 0.06; S365 ([1]; 0.00022 x10^-3 mole/mole Ag): 107; Fog ([1]; 0.00070 x10^-3 mole/mole Ag): 0.28; S365 ([1]; 0.00070 x10^-3 mole/mole Ag): 89; Fog ([1]; 0.00220 x10^-3 mole/mole Ag): 0.82; speed and fog change ([1]; undyed T-1 emulsion): both speed and fog increases; E1 (V) ([4]; Table II): 0.35 V |
| CCSCCN(CC(=O)[O-])c1ccc(C)cc1.[Na+] [Compound S-6, N-(4-Methylphenyl)-N-(2-ethylthio-ethyl)glycine sodium salt] |  |  |  |  |  |  |  |  |  |  |  |  |  | E1 (V) ([4]; Table X): 0.45 V; Fog ([5]; 0.022 x10^-3 mol/mol Ag): 0.14; Photographic Sensitivity SWR2B ([5]; 0.022 x10^-3 mol/mol Ag): 120; Fog ([5]; 0.07 x10^-3 mol/mol Ag): 0.21; Photographic Sensitivity SWR2B ([5]; 0.07 x10^-3 mol/mol Ag): 126 |
| CCSCCN(CCSCC)c1ccc(CC(=O)O)cc1 [Compound S-17, Sodium 2-(4-N,N-bis(ethylthioethyl)aminophenyl)acetate] | < -0.5 | ≈ 3 × 10^5 s^-1 | 0.57 | 0.11 | 80 | 0.05 | 110 | 0.11 | 89 | 0.06 | 120 | increased the 365 nm sensitivity of the undyed emulsion | 0.62 |  |
| CCSCCNC(=O)CCN(CC)c1ccc(CC(=O)O)cc1 [Compound S-18] | < -0.5 | ≈ 3 × 10^5 s^-1 | 0.57 | 0.05 | 95 | 0.05 | 135 | 0.06 | 107 | 0.06 | 148 | increased the 365 nm sensitivity of the undyed emulsion | 0.68 |  |
